According to US6808714B2, “Detection of sarcocystis neurona” (priority 2000, dated 2004):

Tested on: S. neurona merozoites
Assay: Ionophore A23187-stimulated merozoite release from infected host cell monolayers
Format: cell-based, Sarcocystis neurona
Method: A stock solution of calcium ionophore A23187 (Sigma) was prepared in dimethylsulfoxide to a final concentration of 1 mg/ml and stored at −20° C. Infected cell monolayers (see example 1) at 12 days post infection were washed three times with PBS or Hanks Balanced Salts Solution (HBSS), and 10 ml of A23187 (1 μM in HBSS) was added to the washed monolayer and incubated at 37° C. for 40 min. in 5% CO2, 95% air. Free merozoites were collected by centrifugation and washed in PBS as above. Parasites released by this method were examined by density gradient centrifugation, but further separation from host cell debris by density gradient centrifugation was not routinely necessary. For further purification, parasites recovered from the supernatant were isolated from host cell debris on a discontinuous buoyant density gradient using Iodixanol (Optiprep) in PBS or HBSS. Merozoites were suspended gently in 1.0 ml PBS and were layered onto a preformed, three step discontinuous gradient with layers of 1.03, 1.04 and 1.06 g/ml in a 15 ml round bottom centrifuge tube. The gradient was centrifuged at 1000×g for 25 min at 20° C. with the brake off. Fractions containing particulate material at each interface were collected and examined microscopically. The fractions(s) containing significant amounts of merozoites were collected for use.
Lung cells at 60% confluence were seeded at a density of 0.1 merozoites per host cell and parasite growth was monitored microscopically for 30 days. Free parasites were not observed until 10 days post infection. During most of the period of observation, the percentage of extracellular parasites was less than 10%. On day 28, the largest number of free parasites was counted; but the next day the numbers of extracellular parasites was back to less than 10%. Duplicate 75 cm flasks were grown for 12 days in HL cells and treated with HBSS or HBSS with 1 μM A23187. Free parasites were collected by centrifugation and counted with a hemocytometer.

CNc1ccc2oc(C[C@H]3O[C@@]4(CC[C@H]3C)O[C@H]([C@H](C)C(=O)c3ccc[nH]3)[C@H](C)C[C@H]4C)nc2c1C(=O)O [A23187]
Merozoite release in response to ionophore treatment (infected GT, HFF, CHO, BHK and primary EM cells, same conditions): refractory | Enhancement of collection of parasites free in the culture medium (infected host cells incubated 40 min in 1 μM A23187): 90 fold | Merozoite release in response to ionophore treatment (parasitized BM, BM0617, HL, BT and ED cells): released merozoites
